target: Trace amine-associated receptor 1 (Homo sapiens) (UniProt Q96RJ0); assay: human TAAR1 agonist potency, dose response, cell-based, fluorescence, late stage (AID 743229); conditions: TAAR1-expressing cells, fluorescence agonist read-out
Sequence (Q96RJ0 whole entry, looked up, the tested form may be a part): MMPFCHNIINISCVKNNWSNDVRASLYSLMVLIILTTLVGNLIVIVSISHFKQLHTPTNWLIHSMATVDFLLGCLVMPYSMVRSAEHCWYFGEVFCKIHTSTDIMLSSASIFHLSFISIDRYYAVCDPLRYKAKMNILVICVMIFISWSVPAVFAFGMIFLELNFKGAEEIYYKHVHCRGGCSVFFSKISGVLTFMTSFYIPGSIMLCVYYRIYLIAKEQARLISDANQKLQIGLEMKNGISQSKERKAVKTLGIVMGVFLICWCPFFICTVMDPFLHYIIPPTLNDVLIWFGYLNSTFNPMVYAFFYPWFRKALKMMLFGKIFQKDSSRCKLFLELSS

EC50 [nM]	SMILES
75	CCOC(=O)C(NC(C)=O)(N1CCc2ccccc2C1)C(F)(F)F (centres undefined)
263	O=C(CCN1CCC(c2ccccc2)C1)c1ccc2c(c1)OCCO2 (centres undefined)
36.5	CC(=NCCc1ccccc1)C1CCOC1=O (centres undefined)
257	OCCNc1nc(Nc2cccc(O)c2)nc2ccccc12
3310	O=C(Nc1cccnc1)Nc1cccc(F)c1
210	Nc1nc(Nc2ccccc2)nc2ccccc12
182	Cc1cc(N(C)C)nc(Nc2ccccc2)n1
85.9	COc1cc(C(=O)CCN2CCC(c3ccccc3)C2)cc(OC)c1OC (centres undefined)
346	Nc1nc(Nc2cccc(F)c2)nc2ccccc12
1270	Cc1ccc(NC(=O)CCN2CCc3ccccc3C2)cc1
219	NC(N)=NN=Cc1c(Cl)cccc1Cl
233	c1ccc(CCn2nnnc2C(c2cccs2)N2CCN(Cc3ccc4c(c3)OCO4)CC2)cc1 (centres undefined)
481	CC1(C)CCCN(C(=O)c2coc(=O)c(Br)c2)C1
866	O=C(Nc1ccncc1)Nc1ccc(F)cc1
170	Cc1cc(C)n(C(CC(=O)N2CCc3ccccc3C2)C(=O)O)n1 (centres undefined)
294	c1ccc2c3c([nH]c2c1)CCNC3
101	O=C(CCCCl)N1CCc2[nH]c3ccccc3c2C1
42.4	CCOC(=O)C(NC(=O)CC)(N1CCc2ccccc2C1)C(F)(F)F (centres undefined)
807	O=C(Nc1ccccc1)Nc1ccncc1
781	O=C(C(=O)N1CCc2ccccc2C1)c1cn(CC(=O)N2CCCCC2)c2ccccc12
804	OCCNc1nc(Nc2ccc(O)cc2)nc2ccccc12
340	O=C(CCN1CCc2ccccc2CC1)c1ccc2c(c1)OCCO2
278	c1ccc2c(c1)CCN(c1nc3cc4c(cc3s1)OCO4)C2
108	O=C(CCN1CCC(c2ccccc2)C1)c1cccs1 (centres undefined)

Reference: PubChem BioAssay AID743229 (The Scripps Research Institute Molecular Screening Center, 2013)
